Where “and” joins values, the source holds several entries; their conditions need not be identical. Equal values may be shown once. Read-outs that look alike come from different tables or passages of the source.
Biological target: T1, WT CFTR (Homo sapiens, UniProt P13569)
T1 construct: expressed in transfected cells; host or cells: Xenopus laevis oocytes injected with cRNA transcribed from pGEMHE-CFTR
Assay: Macroscopic current recording in excised inside-out patches from Xenopus laevis oocytes
Format: biochemical
Settings: for EC50: 2 mM ATP, 25°C, read-out: K0.5 for current stimulation
Description: We reasoned that this circumstance might explain some of the puzzling features of the drug, such as CFTR channel inactivation observed in some cases ([Cholon et al., 2014]), as well as apparent irreversibility of drug effects ([Jih and Hwang, 2013]; [Lin et al., 2016]; [Yeh et al., 2015]; [Yeh et al., 2017]; [Wang et al., 2014]; [Wang et al., 2018]). To investigate stability and reversibility of Vx-770 effects in a concentration range that can be achieved in the human body during oral drug administration, we tested the effects of our 1x saturated Vx-770 solution and its dilutions in inside-out patches excised from Xenopus laevis oocytes expressing WT or mutant human CFTR channels.
Patch pipette solution contained (in mM): 136 NMDG-Cl, 2 MgCl2, 5 HEPES, pH = 7.4 with NMDG. Bath solution contained (in mM): 134 NMDG-Cl, 2 MgCl2, 5 HEPES, 0.5 EGTA, pH = 7.1 with NMDG. MgATP (2 mM) was added from a 400 mM aqueous stock solution (pH = 7.1 with NMDG). Before each experiment 300 nM catalytic subunit of PKA (Sigma-Aldrich Kft., Budapest, Hungary) was applied for ~1 min to phosphorylate CFTR channels. Vx-770 (Selleck Chemicals) was diluted into the bath solution either from a ‘1x saturated’ aqueous stock solution (see above, concentration ~62 nM), or from a commercially obtained 10 mM stock dissolved in DMSO (Selleck Chemicals). Following patch excision the patch pipette was moved into a flow chamber, and recordings were done under continuous superfusion of the cytosolic patch surface. Solution compositions were exchanged using computer-driven electronic valves (solution exchange time constant <50 ms). After each recording day perfusion tubings were extensively washed with distilled water. Although supersaturated solutions of Vx-770 were not employed here, any perfusion tubing that had ever been in contact with a given concentration of Vx-770 was subsequently used only for solutions that contained the same, or higher, concentrations of the drug. After every 5–6 experimental days the entire perfusion system was replaced. Currents were recorded at 25°C, at a membrane potential of −40 mV, digitized at 10 kHz, Gaussian-filtered at 2 kHz, and recorded to disk (Axopatch 200B, Digidata 1322A, Pclamp9 (Molecular Devices, RRID: SCR_011323)). For display purposes, currents are shown filtered at 10 Hz and sampled at 20 Hz, and expanded single-channel traces (Figure 2b, Figure 4d) are shown filtered at 50 Hz and sampled at 250 Hz.
Vx-770 was applied after currents elicited by 2 mM ATP had stabilized. To allow for full development of its potentiator effect, Vx-770 was superfused until the current reached steady state which, for low nanomolar Vx-770, required up to 5–6 min. After full stimulation, Vx-770 was washed off for at least 5 min to allow the current to decline to a post-drug steady state. Fractional current stimulation by Vx-770 (I/Icontrol) was calculated as the mean steady current in the presence of the drug, divided by the average of the pre- and post-drug mean steady currents. Dose response curves (Figure 3c,f) were least-squares fitted to the modified Hill equation I/Icontrol=(K0.5^n+(Imax/Icontrol)[Vx-770]^n)/(K0.5^n+[Vx-770]^n), with Imax/Icontrol, K0.5, and n as free parameters.
To obtain apparent deactivation rates, current decay time courses following Vx-770 removal were fitted by single exponentials using least squares, and deactivation rates defined as the inverse of the decay time constant (1/τoff; Figure 4c). To obtain apparent activation rates, current activation time courses upon Vx-770 addition were fitted to an empirical three-step kinetic scheme S1→S2→S3→S4. Compound states S1-S4 in this scheme are not interpreted as channel conformational states, but rather as states of the entire system (aqueous solution +patch membrane leaflets + channels), and could reflect various stages of drug distribution among those compartments. […]

[1] = diluted from 10 mM DMSO-based stock

T1 sequence (P13569 whole entry): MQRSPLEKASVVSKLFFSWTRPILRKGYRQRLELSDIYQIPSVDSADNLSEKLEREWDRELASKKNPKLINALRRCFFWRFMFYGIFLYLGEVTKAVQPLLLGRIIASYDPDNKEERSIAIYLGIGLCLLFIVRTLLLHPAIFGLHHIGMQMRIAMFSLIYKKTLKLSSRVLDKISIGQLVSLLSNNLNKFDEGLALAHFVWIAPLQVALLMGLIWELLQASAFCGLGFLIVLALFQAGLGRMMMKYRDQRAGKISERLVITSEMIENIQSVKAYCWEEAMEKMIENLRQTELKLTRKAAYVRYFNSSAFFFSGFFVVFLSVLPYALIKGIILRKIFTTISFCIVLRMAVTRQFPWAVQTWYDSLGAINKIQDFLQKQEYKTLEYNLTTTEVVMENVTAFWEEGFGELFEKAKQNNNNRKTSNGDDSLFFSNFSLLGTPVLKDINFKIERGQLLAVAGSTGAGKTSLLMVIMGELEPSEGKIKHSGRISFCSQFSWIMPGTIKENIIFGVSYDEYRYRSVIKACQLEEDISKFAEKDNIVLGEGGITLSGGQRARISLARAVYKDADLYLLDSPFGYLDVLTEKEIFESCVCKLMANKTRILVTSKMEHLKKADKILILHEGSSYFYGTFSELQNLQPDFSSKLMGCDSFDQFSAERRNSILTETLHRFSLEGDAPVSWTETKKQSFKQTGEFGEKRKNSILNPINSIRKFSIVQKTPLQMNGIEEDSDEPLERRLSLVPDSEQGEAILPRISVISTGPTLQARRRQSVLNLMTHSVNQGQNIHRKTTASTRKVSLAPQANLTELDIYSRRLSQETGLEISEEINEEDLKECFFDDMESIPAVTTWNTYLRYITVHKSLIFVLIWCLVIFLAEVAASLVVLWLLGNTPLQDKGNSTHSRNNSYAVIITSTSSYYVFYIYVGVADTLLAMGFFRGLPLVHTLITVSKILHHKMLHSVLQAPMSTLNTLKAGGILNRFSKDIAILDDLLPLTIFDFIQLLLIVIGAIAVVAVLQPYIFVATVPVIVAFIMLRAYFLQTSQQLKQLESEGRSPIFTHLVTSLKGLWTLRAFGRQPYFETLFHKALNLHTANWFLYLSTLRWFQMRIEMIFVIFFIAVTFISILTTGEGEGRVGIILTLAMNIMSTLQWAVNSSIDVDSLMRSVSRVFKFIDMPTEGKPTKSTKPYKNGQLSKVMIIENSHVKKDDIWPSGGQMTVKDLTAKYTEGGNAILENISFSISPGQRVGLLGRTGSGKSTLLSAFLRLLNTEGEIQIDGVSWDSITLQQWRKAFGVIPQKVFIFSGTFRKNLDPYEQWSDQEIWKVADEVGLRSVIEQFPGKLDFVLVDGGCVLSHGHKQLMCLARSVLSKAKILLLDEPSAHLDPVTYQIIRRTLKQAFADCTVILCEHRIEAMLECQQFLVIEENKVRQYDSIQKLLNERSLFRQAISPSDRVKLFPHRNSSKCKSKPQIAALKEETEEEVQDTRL

apparent activation time constant τ* (0.01x saturated Vx-770 (assigned by b20: slower at low concentration), Figure 4a): 155 s
current stimulation (1x saturated (~62 nM) Vx-770, 2 mM ATP, prephosphorylated channels, -40 mV): ~ 4 fold
time constant τ of current decline following drug removal (after 1x saturated (~62 nM) Vx-770, Figure 2a): 145 s
time constant τ of current decline following drug removal (after 1x saturated Vx-770): ~ 2 min
Hill coefficient [1]: 1.32±0.47
EC50 [1]: 490 ± 150 pM
Hill coefficient (diluted from 1x saturated aqueous stock): 1.31±0.65
EC50 (diluted from 1x saturated aqueous stock, assuming 62 nM): 470 ± 120 pM
delay of onset of current stimulation (subnanomolar/low nanomolar aqueous drug concentrations): ≤ 1 min
reversibility of Vx-770 effects (upon removal of 1x saturated Vx-770): full reversibility
apparent K0.5 lower (affinity higher) than previously reported (versus ~300 nM reported): ~ 600 fold and 600 fold
SMILES: CC(C)(C)c1cc(C(C)(C)C)c(NC(=O)c2c[nH]c3ccccc3c2=O)cc1O [Vx-770, ivacaftor]
